Structures can show the parent of a compound that is named as a salt. Where two headings read alike, the source gives them in different places.

Experiment [1] has as its target T1, human recombinant bradykinin B1 receptor (Homo sapiens, UniProt P46663).
T1 construct: purchased Euroscreen ES-091; host or cells: CHO cells
T1 sequence (P46663 1-353): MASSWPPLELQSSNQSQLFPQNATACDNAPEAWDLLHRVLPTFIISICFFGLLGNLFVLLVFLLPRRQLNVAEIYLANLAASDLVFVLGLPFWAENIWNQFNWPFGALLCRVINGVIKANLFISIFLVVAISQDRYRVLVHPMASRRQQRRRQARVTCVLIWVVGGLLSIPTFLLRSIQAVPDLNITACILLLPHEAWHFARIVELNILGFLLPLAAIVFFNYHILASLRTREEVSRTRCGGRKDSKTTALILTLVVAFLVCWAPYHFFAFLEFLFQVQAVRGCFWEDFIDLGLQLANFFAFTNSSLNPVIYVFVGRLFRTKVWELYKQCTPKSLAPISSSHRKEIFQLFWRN
Nature of the experiment: Human recombinant bradykinin B1 receptor binding. How it is done:
1. Human Recombinant Bradykinin B1 Receptor Binding
Binding assays were carried out on human recombinant bradykinin) receptors (expressed in CHO cells) according to the Euroscreen Technical Data Sheet (Cat.No.:ES-091). 20 μg protein/tube was incubated with [3,4-prolyl-3,4-^3H(N)]-[Des-Arg^10] Kallidin as radioligand. Non specific binding was determined in the presence of 10 μM Lys-des-Arg^9-Bradykinin. The final incubation volume was 250 μl. Samples were incubated for 15 min. at 25° C. then were rapidly vacuum filtered through GF/B filters presoaked for at least 1 h in 0.5% PEI. Radioactivity was determined by liquid scintillation spectroscopy.

For experiment [2], the target named is T2, recombinant human B1 receptors (Homo sapiens, UniProt P46663).
T2 construct: host or cells: CHO (CHO-B1)
T2 sequence (P46663 1-353): T1 sequence (P46663 1-353)
As to the kind of experiment: Functional assay: cytosolic calcium ion concentration measured with plate reader fluorimeter in CHO-B1 cells, agonist LysDABK. The format is cell-based. The procedure: Assessment of Antagonist Potency at B1 and B2 Receptors In Vitro by Measurement of Cytosolic Calcium Ion Concentration with a Plate Reader Fluorimeter in Cells Expressing Recombinant Human B1 or B2 Receptors
Chinese hamster ovary (CHO) cells stably expressing recombinant human B1 (CHO-B1, Euroscreen) or B2 (CHO-B2, Perkin-Elmer) receptors were cultured in Dulbecco's Modified Eagle's Medium (DMEM) containing 10% Fetal Calf Serum (FCS), 100 U/ml penicillin, 0.1 mg/ml streptomycin, 0.25 μg/ml amphotericin B, 1% Minimum Essential Medium Eagle (MEM), non essential amino acid solution, 600 μg/ml G418, 1% pyruvate (for the B2 cell line). Cells were kept at 37° C. in a humidified incubator in an atmosphere of 5% CO2/95% air and were passaged 1:4 three times a week. Cells were plated at 1.5-2.5×10^4 cell/well on standard 96-well microplates, measurements of cytosolic calcium ion concentration ([Ca^2+]i) were carried out 1-2 days after cell plating.
Measurements of [Ca^2+]i were carried out on CHO-B1 and CHO-B2 cells stably expressing human B1 and B2 receptors, respectively. Cells were grown in standard 96-well microplates and before the measurement were loaded with a fluorescent Ca^2+-sensitive dye, fluo-4/AM (2 μM): after removing the culture medium the dye was added to the cells (dissolved in assay buffer: 145 mM NaCl, 5 mM KCl, 2 mM MgCl2, 2 mM CaCl2, 10 mM HEPES, 20 mM D-glucose, 2 mM probenecid, 100 μl/well) and cells were incubated at 37° C. in a humidified incubator in an atmosphere of 5% CO2/95% air for 40-120 min. To stop dye loading cells were washed twice with assay buffer. After washing, various concentrations of the test compounds (diluted in extracellular medium from a DMSO stock solution, final DMSO concentration was <0.1%) or buffer were added to each well depending on the experimental setup. After incubation at 37° C. for 20-25 min. baseline and agonist-evoked changes of [Ca^2+]i were measured column by column with a plate reader fluorimeter (Fluoroskan Ascent, Labsystems). Excitation and detection of emission was carried out from the bottom of the plate. Filters used for Fluo-4: excitation filter—485 nm, emission filter—538 nm. The whole measurement process was performed at 37° C. and was controlled by custom software. Inhibitory potency of the test compounds was assessed by measuring the reduction in the agonist-evoked [Ca^2]i-elevation in the presence of different concentrations of the compounds. The agonists were LysDABK for CHO-B1, and bradykinin for CHO-B2 cells. Agonists were applied at an EC80 concentration, the EC80-values were derived from daily determined dose-response curves. Fluorescence data were expressed as ΔF/F (fluorescence change normalized to baseline). All treatments on a single plate were measured in multiple wells. Data from all wells with the same treatment were averaged and the average values were used for analysis. Inhibitory potency of a compound at a single concentration point was expressed as percent inhibition of the control agonist response. Sigmoidal concentration-inhibition curves were fitted to the data (derived from at least three independent experiments) and IC50-values were determined as the concentration that produces half of the maximal inhibition caused by the compound.

Setting [3] is: radioligand [3H]-[Des-Arg10] Kallidin, CHO cell membranes, read-out: B1 binding.
The mark [4] stands for this setting: CHO-B1 cells, LysDABK at EC80, [Ca2+]i, read-out: B1 func.
Setting [5] is: reference compounds, binding test, read-out: Ki.
The mark [6] stands for this setting: reference compounds, functional test, read-out: IC50.

As for `O=C(NCCCN1CCC(N2CCCCC2)CC1)c1ccc(S(=O)(=O)Nc2ccccc2Oc2ccc(C(F)(F)F)cc2)cc1` [Example 129, N-(3-[1,4′]Bipiperidinyl-1′-yl-propyl)-4-[2-(4-trifluoromethyl-phenoxy)-phenylsulfamoyl]-benzamide], in experiment [1] (setting [3]), the Ki was 20 to 100 nM. Moreover, the IC50 in experiment [2] (setting [4]) lay within 20 to 100 nM.

Turning to `COc1cc(Cl)ccc1Oc1ccccc1NS(=O)(=O)c1ccc(C(=O)NCCCN2CCC(N3CCCCC3)CC2)cc1` [Example 132, N-(3-[1,4′]Bipiperidinyl-1′-yl-propyl)-4-[2-(4-chloro-2-methoxy-phenoxy)-phenylsulfamoyl]-benzamide], the Ki in experiment [1] (setting [3]) is below 20 nM. Besides, in experiment [2] (setting [4]), the IC50 fell in the range of 20 to 100 nM.

On to `O=C(NCCCCC1CCNCC1)c1ccc(S(=O)(=O)Nc2ccccc2Oc2ccc(F)cc2Cl)cc1` [Example 135, 4-[2-(2-Chloro-4-fluoro-phenoxy)-phenylsulfamoyl]-N-(4-piperidin-4-yl-butyl)-benzamide hydrochloride], for which, in experiment [1] (setting [3]), the Ki was in the range of 20 to 100 nM. In experiment [2] (setting [4]), the IC50 was 20 to 100 nM.

Take `O=C(NCCCC1CCNCC1)c1ccc(S(=O)(=O)Nc2ccccc2Oc2ccc(Cl)cc2Cl)cc1` [Example 137, 4-[2-(2,4-Dichloro-phenoxy)-phenylsulfamoyl]-N-(3-piperidin-4-yl-propyl)-benzamide trifluoracetate]: the Ki in experiment [1] (setting [3]) fell in the range of 20 to 100 nM. In experiment [2] (setting [4]), the IC50 fell in the range of 20 to 100 nM.

For the molecule `COc1ccc(Oc2ccccc2NS(=O)(=O)c2ccc(C(=O)NCCCN3CCC(N4CCCCC4)CC3)cc2)c(Cl)c1` [Example 147, N-(3-[1,4′]Bipiperidinyl-1′-yl-propyl)-4-[2-(2-chloro-4-methoxy-phenoxy)-phenylsulfamoyl]-benzamide], the Ki in experiment [1] (setting [3]) was 20 to 100 nM. Further, the IC50 in experiment [2] (setting [4]) is 20 to 100 nM.

For the molecule `O=C(NCCCN1CCC(N2CCCCC2)CC1)c1ccc(S(=O)(=O)Nc2ccccc2Oc2ccccc2)cc1` [Example 152, N-(3-[1,4′]Bipiperidhlyl-1′-yl-propyl)-4-(2-phenoxy-phenylsulfamoyl)-benzamide], in experiment [1] (setting [3]), the Ki fell in the range of 20 to 100 nM. Moreover, in experiment [2] (setting [4]), the IC50 is 20 to 100 nM.

With `O=C(NCCCN1CCC(N2CCCCC2)CC1)c1ccc(S(=O)(=O)Nc2ccccc2Oc2ccc(Br)cc2Cl)cc1` [Example 157, N-(3-[1,4′]Bipiperidinyl-1′-yl-propyl)-4-[2-(4-bromo-2-chloro-phenoxy)-phenylsulfamoyl]-benzamide], in experiment [1] (setting [3]), the Ki is below 20 nM. Moreover, the IC50 in experiment [2] (setting [4]) is below 20 nM.

Take `O=C(NCCN1CCN(c2cnccn2)CC1)c1ccc(S(=O)(=O)Nc2ccccc2Oc2ccc(Br)cc2Cl)cc1` [Example 159, 4-[2-(4-Bromo-2-chloro-phenoxy)-phenylsulfamoyl]-N-[2-(2,3,5,6-tetrahydro-[1,2′]bipyrazinyl-4-14)-ethyl]-benzamide]: the Ki in experiment [1] (setting [3]) is 20 to 100 nM. The IC50 in experiment [2] (setting [4]) was 20 to 100 nM.

As for `O=C(NCc1ccc(CC2CCNCC2)cc1)c1ccc(S(=O)(=O)Nc2ccccc2Oc2ccc(Br)cc2Cl)cc1` [Example 166, 4-[2-(4-Bromo-2-chloro-phenoxy)-phenylsulfamoyl]-N-(4-piperidin-4-ylmethyl-benzyl)-benzamide hydrochloride], the Ki in experiment [1] (setting [3]) is 20 to 100 nM. Moreover, in experiment [2] (setting [4]), the IC50 is 20 to 100 nM.

As for `O=C(NCCCCC1CCNCC1)c1ccc(S(=O)(=O)Nc2ccccc2Oc2ccc(Br)cc2Cl)cc1` [Example 167, 4-[2-(4-Bromo-2-chloro-phenoxy)-phenylsulfamoyl]-N-(4-piperidin-4-yl-butyl)-benzamide hydrochloride], the Ki in experiment [1] (setting [3]) fell in the range of 20 to 100 nM. Also, in experiment [2] (setting [4]), the IC50 was 20 to 100 nM.

As to `O=C(Nc1ccc(N2CCC(N3CCCCC3)CC2)cc1)c1ccc(S(=O)(=O)Nc2ccccc2Oc2ccc(Br)cc2Cl)cc1` [Example 169, N-(4-[1,4′]Bipiperidinyl-1′-yl-phenyl)-4-[2-(4-bromo-2-chloro-phenoxy)-phenylsulfamoyl]-benzamide], the Ki in experiment [1] (setting [3]) is below 20 nM. Moreover, the IC50 in experiment [2] (setting [4]) was below 20 nM.

As to `O=C(NCCCCC1CCNCC1)c1ccc(S(=O)(=O)Nc2ccccc2Oc2ccc(Cl)cc2Cl)cc1` [Example 170, 4-[2-(2,4-Dichloro-phenoxy)-phenylsulfamoyl]-N-(4-piperidin-4-yl-butyl)-benzamide hydrochloride], the Ki in experiment [1] (setting [3]) was below 20 nM. In addition, the IC50 in experiment [2] (setting [4]) was below 20 nM.

Consider `CN1CCN(C(=O)C2CCN(S(=O)(=O)c3ccc(NCC(c4ccccc4)c4ccccc4)c(C(=O)N4CCOCC4)c3)CC2)CC1` [NVP-SAA164, 4-{2-[(2,2-diphenyl-ethyl)-amino]-5-{4-[4-[(4-methyl-1-piperazinyl)-carbonyl]-1-piperidinyl]-sulfonyl}-benzoyl}-morfoline, reference compound], for which the Ki in experiment [1] (setting [5]) is 8 nM. The IC50 in experiment [2] (setting [6]) came out at 33 nM.

With `CCCN1C(=O)[C@H](NC(=O)Nc2ccc(N3CCN(c4ccncc4)CC3)cc2)N=C(CCc2ccccc2)c2ccccc21` [compound 2, (R)—N-[2,3-dihydro-2-oxo-5-(2-phenyl-ethyl)-1-propyl-1H-1,4-benzodiazepin-3-yl]-N′-{4-[4-(4-pyridinyl)-1-piperazinyl]-phenyl}-urea, reference compound], in experiment [1] (setting [5]), the Ki came to 0.59 nM. Moreover, the IC50 in experiment [2] (setting [6]) is 1.9 nM.

For the molecule `CCCN1C(=O)[C@H](NC(=O)Nc2ccc(N3CCC(N4CCCCC4)CC3)cc2)N=C(c2ccc(C)cc2)c2ccccc21` [compound 3, N-[4-(,4′-bipiperidin)-1′-ylphenyl]-N′-[(3R)-2,3-dihydro-5-(4-methyl-phenyl)-2-oxo-1-propyl-1H-1,4-benzodiazepin-3-yl]-urea, reference compound], the Ki in experiment [1] (setting [5]) was determined as 13.4 nM. In experiment [2] (setting [6]), the IC50 is 64.5 nM.

The record behind these values is patent US20100075978A1, “SULFONAMIDE DERIVATIVES AS BRADYKININ ANTAGONISTS” (priority 2006, published 2010).
